Entries after “also recorded” stand apart in the source; their conditions may differ.
Experiments:
[1] = tested on: macrophage cell line J774; test: Alamar Blue macrophage J774 viability assay; assay type: cell-based; details: Mus musculus, J774, 72 h, 72 hours culture with compound
Protocol: Initial screening of candidate compounds was performed using viability assays on cultures of the macrophage cell line J774, which have been used before as a model system for osteoclast survival (see, e.g., Luckman et al., 1998). The assays are based on the survival of the J774 macrophage cell line; macrophages are closely related to osteoclasts, and contain similar high levels of esterase activity.
J774 cells were plated at 10^4 cells per well in 150 μL αMEM (α Modified Eagle Medium) in 96-well plates and grown overnight. The next day, test compounds were added to the cultures, and cultures were continued for another 72 hours. At the end of the culture period, cell survival was determined using an Alamar Blue assay as previously described (see, e.g., Nociari et al., 1998).
Alamar Blue is an oxidation-reduction sensitive indicator. The dye itself is in the oxidised state, which is blue and non-fluorescent. The dye can accept electrons from reducing species, such as NADPH and FADH, to form a reduced dye species, which is red and fluorescent. Thus the transformation from oxidised form to reduced form can be measured by fluorimetric or colourimetric means. For fluorescence measurements, 530-560 nm excitation and 590 nm emission wavelengths are typically used. For colourimetric measurements, absorbance is measured at 570 nm (reduced form) and 600 nm (oxidised form) and a simple calculation performed to determine the relative quantities of the two species.
A high ratio of the reducing species, NADPH and FADH, to the corresponding oxidised species, NADP and FAD, is an indicator that cells are proliferating and viable. A low ratio indicates cells that are quiescent or non-viable.
Briefly, Alamar Blue (Biosource International) was added undiluted to the each well (1:10 v/v, 15 μL). The plate was incubated at 37° C. for 3-4 hours and the fluorescence was measured at 590 nm, with a 25 nm bandwidth. A high reading indicated cells with normal viability, and a low reading indicated cells that have been damaged and are no longer proliferating normally. The controls gave a high fluorescence reading, indicating a high number of live, healthy cells. A potent test compound gave a low fluorescence reading. The average results for each test compound (n=5) were expressed as a percent (%) of the average control value.
Addition of Compounds. All of the compounds studied were made up as 100 mM solutions in DMSO. These stock solutions were then diluted 100 or 1000× in culture medium (αMEM). From these 1 mM or 100 μM solutions, convenient quantities (3-15 μL) were added directly to the wells so as to give the desired final compound concentration.

[2] = In vivo pharmacokinetics: serum levels after oral dosage (HPLC/UV); design: species or system rat; details: rats, 10 mg/kg oral
Protocol: Absorption and metabolic stability were studied using an in vivo pharmacokinetics assay. Drug levels assessed using HPLC/UV.
Following overnight starvation, male Wistar rats (250 g) were given a bolus gavage of 500 μL of a solution of test compound in corn oil (5 mg/ml). Blood samples (1 mL, whole blood) were taken at various time intervals and the serum collected following centrifugation. Samples were frozen until required for analysis.
Ethyl acetate (4 mL) was added to the defrosted serum and the samples mixed for 20 minutes. Following centrifugation, the ethyl acetate layer was collected and evaporated under a stream of nitrogen. The residue was reconstituted in mobile phase and 20 μL injected onto the chromatogram.
Standard calibration curves were prepared for each of the test compounds and were linear in the range of 1 ng/mL to 250 ng/mL.
• Column: HIRPB C18 (150×4.6 mm). • Mobile phase: 60% 25 mM ammonium acetate, pH 4; 40% acetonitrile. • Flow rate: 1 mL/minute. • Detection: Peaks detected by UV absorption at λmax in the range of 240-275 nm.
Serum levels of compounds ABD328, ABD345 and ABD430 following oral dosage (10 mg/kg) over the course of 60 minutes were investigated in vivo in rats using an HPLC/UV detection system, as described above.

[3] = tested on: mouse collagen-induced arthritis model; test: Collagen-induced arthritis model, joint inflammation scoring; assay type: in vivo; details: for total joint score (sum of joint inflammation scores of the study group): 21-day period, n=10, untreated group 47, FIG. 3
Protocol: Collagen-induced arthritis (CIA) was induced in 8-week old male DBA/1 mice, by intradermal injection of 100 μL of chicken collagen type II (2 mg/mL) suspended in complete Freund's adjuvant supplemented with 2 mg/mL devitalised M. Tuberculosis into the base of the tail. This will lead to joint inflammation in >80% of the animals within 4 weeks. Treatment with ABD328 (10 mg/kg/day, orally or i.p., delivered in corn oil) was started when joint inflammation became apparent in the first animals (in this experiment 15 days after injection), and the experiment was terminated 3 weeks later. For each animal, the scores for all four joints were added (maximal score=12).
Compound ABD328 (dosage 10 mg/kg, i.p. or oral) was investigated in vivo using the collagen-induced arthritis model, assessed using joint inflammation severity scoring, as described above.

[4] = tested on: mouse-ovariectomy bone loss model; test: Ovariectomy induced bone loss (pQCT trabecular bone density); assay type: in vivo; details: OVX mice, 20 mg/kg orally
Protocol: Animals. Female 9 week-old C57/BL6 mice were used. Animals were housed in a designated animal facility and routinely maintained on a 12 hour:12 hour light:dark cycle and given ad libitum access to food and water.
Ovariectomy induced bone loss. Bilateral ovariectomy (Ovx) was performed under general anaesthesia. Sham ovariectomy (Sham) was similarly performed but with externalisation and replacement of the ovaries. Animals were given a daily injection of (a) test compound (e.g., 10 mg/kg) in vehicle (corn oil), or (b) vehicle (corn oil). After 21 days, the animals were killed, and the tibial bones were dissected and used for bone mineral density measurements and histomorphometric analysis (see below).
Bone Mineral Measurements. Measurements of bone mineral density (BMD) at the left proximal tibial metaphysis were determined by peripheral quantitative computed tomography (pQCT) using an XCT Research M bone densitometer with a voxel size of 70 μm and analysis software version 5.1.4 (Stratec Medizintechnik, Pforzheim, Germany). […]
Statistical Analyses. […] Significant differences between groups were determined by ANOVA followed by post-hoc testing using Dunnet's post-test. […]
Compounds ABD68, ABD328 and ABD355 (dosage 20 mg/kg, orally) were investigated in vivo using ovariectomy induced bone loss assessed using peripheral quantitative computed tomography, as described above.

[5] = Table 3 (variation of W), J774 cells

In the case of `OCCCCCC(O)c1ccc(-c2ccc(Cl)cc2Cl)cc1` (racemic) [ABD300, (R,S)-1-(2′,4′-Dichloro-biphenyl-4-yl)-hexane-1,6-diol], the IC50 [1, 5] is reported as 8 ± 2 µM.

For `O=C(CCCCCO)c1ccc(-c2ccc(Cl)cc2Cl)cc1` [ABD328, 1-(2′,4′-Dichloro-biphenyl-4-yl)-6-hydroxy-hexan-1-one], the “metabolic stability (in words)” value ([2]; in vivo serum levels) was “good degree of metabolic stability”, the “oral absorption (blood serum levels), in words” value ([2]; over 60 minutes, FIG. 2) was “well absorbed” and the IC50 ([1]; Table 2, J774 cells) was 12 ± 2 µM. The IC50 [1, 5] was 11 ± 3 µM, the “total joint score (sum of joint inflammation scores of the study group)” value ([3]; 10 mg/kg/day i.p.) was 5 and the “total joint score (sum of joint inflammation scores of the study group)” value ([3]; 10 mg/kg/day orally) was 13. For the same compound, the “effect on collagen-induced arthritis / inflammation (in words)” value ([3]; 10 mg/kg/day, i.p. or oral) was “fully reverse the effects of collagen-induced arthritis; also recorded: prevents inflammation”, the “effect on ovariectomy-induced bone loss (in words)” value ([4]; 20 mg/kg) was “fully reverse the effects of ovariectomy-induced bone loss; also recorded: fully prevents bone loss” and the “increase in trabecular bone density” value ([4]; relative to the control group (OVX no drug: 34% decrease), FIG. 1) was 6%.

`OCCCCC/C(=N\O)c1ccc(-c2ccc(Cl)cc2Cl)cc1` [ABD468, 1-(2′,4′-Dichloro-biphenyl-4-yl)-6-hydroxy-hexan-1-one oxime] showed an IC50 [1, 5] of 7 ± 2 µM.

`OCCCCC[C@@H](O)c1ccc(-c2ccc(Cl)cc2Cl)cc1` [ABD511, (R)-1-(2′,4′-Dichloro-biphenyl-4-yl)-hexane-1,6-diol] showed an IC50 [1, 5] of 4 ± 2 µM.

Work on `OCCCCC[C@H](O)c1ccc(-c2ccc(Cl)cc2Cl)cc1` [ABD513, (S)-1-(2′,4′-Dichloro-biphenyl-4-yl)-hexane-1,6-diol] yielded an IC50 [1, 5] of 11 ± 4 µM.

Reference: patent publication US7560597B2, “2′,4′-dichloro-biphenyl-4-yl-hydroxy-ketones and related compounds and their use as therapeutic agents” (The University Court of the University of Aberdeen, priority 2007, dated 2009)
